Experimental data from article PMC8617681 (Pharmaceuticals, 2021).

Biological target: T1, human OATP1B1 (Homo sapiens, UniProt Q9Y6L6)
T1 construct: Werner Siegmund and Dr. Markus Keiser (University of Greifswald); host or cells: HEK293
T1 sequence (Q9Y6L6 1-691): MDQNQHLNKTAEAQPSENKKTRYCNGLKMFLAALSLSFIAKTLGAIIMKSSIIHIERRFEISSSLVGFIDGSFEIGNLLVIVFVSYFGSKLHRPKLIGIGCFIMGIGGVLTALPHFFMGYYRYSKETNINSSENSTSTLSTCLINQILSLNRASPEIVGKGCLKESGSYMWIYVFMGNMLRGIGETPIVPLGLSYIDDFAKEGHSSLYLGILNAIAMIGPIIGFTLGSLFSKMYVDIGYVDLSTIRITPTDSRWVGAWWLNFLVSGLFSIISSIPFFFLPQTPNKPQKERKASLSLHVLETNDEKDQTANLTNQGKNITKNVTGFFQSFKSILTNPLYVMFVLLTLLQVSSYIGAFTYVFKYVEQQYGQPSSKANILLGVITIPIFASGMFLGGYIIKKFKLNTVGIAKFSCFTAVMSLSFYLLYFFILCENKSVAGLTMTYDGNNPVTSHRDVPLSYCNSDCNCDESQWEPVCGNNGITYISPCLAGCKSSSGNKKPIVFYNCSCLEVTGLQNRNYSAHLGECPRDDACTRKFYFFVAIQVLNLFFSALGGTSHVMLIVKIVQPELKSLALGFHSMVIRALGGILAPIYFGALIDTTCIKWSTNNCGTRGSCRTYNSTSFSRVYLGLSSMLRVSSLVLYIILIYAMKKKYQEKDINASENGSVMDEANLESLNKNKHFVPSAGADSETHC
Assay: Cellular uptake in OATP1B1-overexpressing HEK293 cells
Assay type: in vitro ADME
Settings: 5 µM, 2.5 min incubation, HEK293 OATP1B1
Procedure: HEK293 cells, vector-transfected or human (h)SLCO1A2, hSLCO1B1 or hSLCO1B3 cDNA-transfected were kind gifts from Prof. Werner Siegmund and Dr. Markus Keiser (University of Greifswald, Greifswald, Germany). All the HEK293 cell lines were maintained in DMEM supplemented with 10% (v/v) FBS, 1% penicillin–streptomycin mix at 37 °C in 5% (v/v) CO2 and 500 μg/mL G418. Cells were first seeded in 12-well plates [coated with 50 mg/L poly (l-lysine) and 50 mg/L poly (l-ornithine)] at a density of 1.0 × 10^5 cells/well. For the uptake study, in order to induce the expression of OATP transporters, the cell culture medium was replaced with culture medium supplemented with 5 mM sodium butyrate 24 h before performing the uptake assay.
The uptake transport study was performed as described previously. […] The Krebs–Henseleit solution was prepared from Krebs–Henseleit-buffer modified powder and supplemented with 25 mM NaHCO3 and 2.5 mM CaCl2 adjusted to pH 6.4 with 1 M HCL. At 2.5 min, the incubation buffer was removed, and uptake was terminated by adding 1 mL of ice-cold Krebs–Henseleit buffer, followed by two times washing with 1 mL of ice-cold Krebs–Henseleit buffer. […] The cellular protein amount was determined by the Bradford method using 10 μL of the cell lysates with bovine serum albumin as a standard.

## COc1ccc(CN2C3CC2CN(c2ccc(-c4cc(OCC(C)(C)O)cn5ncc(C#N)c45)cn2)C3)cn1 [selpercatinib]
  uptake compared to vector control cells: did not observe any significant increase in the uptake
